The values below come from PubChem BioAssay AID248 (DTP/NCI, 2004).

This assay has as its system L1210 leukemia ip in BDF1 mice, survival T/C. The assay can be described thus: NCI In Vivo Anticancer Drug Screen. Data for tumor model L1210 Leukemia (intraperitoneal) in B6D2F1 (BDF1) mice. To be noted: endpoint: mean survival time, higher = longer survival. The method, boiled down:
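Read-out is survival time, reported as the treated-group measurement over the vehicle-control measurement.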

Values joined by “and” are separate entries in the source; they are usually repeats but may differ in a detail not shown here. Identical values can stand only once. Inconclusive results and toxic doses are left out.

Consider `CN(C)c1ccc(/C=N/N=C(N)N)cc1`, for which the T/C reads like this: (dose: 15.0 mg/kg/injection, schedule: Q01DX Z (ip), vehicle: saline) 89 % of control; (dose: 30.0 mg/kg/injection, schedule: Q01DX Z (ip), vehicle: saline) 92 % of control; (dose: 30.0 mg/kg/injection, schedule: Q01DX Z (oral), vehicle: other) 100 % of control; (dose: 60.0 mg/kg/injection, schedule: Q01DX Z (ip), vehicle: saline) 100 % of control; (dose: 60.0 mg/kg/injection, schedule: Q01DX Z (oral), vehicle: other) 97 % of control; (dose: 120.0 mg/kg/injection, schedule: Q01DX Z (oral), vehicle: other) 109 % of control.

Turning to `COc1cc(/C=C2/CCCCC2=O)ccc1O`, the T/C (dose: 100.0 mg/kg/injection, schedule: Q04DX003 (ip), vehicle: other) is 93 % of control; the T/C (dose: 200.0 mg/kg/injection, schedule: Q04DX003 (ip), vehicle: other) was 100 % of control; the T/C (dose: 400.0 mg/kg/injection, schedule: Q04DX003 (ip), vehicle: other) is 94 % of control.

Consider `CCC[CH2][Ge]([CH2]CCC)[CH2]CCC.CCC[CH2][Ge]([CH3])[CH2]CCC`, for which the T/C reads like this: (dose: 100.0 mg/kg/injection, schedule: Q04DX002 (ip), vehicle: saline with Tween-80) 93 % of control; (dose: 200.0 mg/kg/injection, schedule: Q04DX002 (ip), vehicle: saline with Tween-80) 89 % of control; (dose: 400.0 mg/kg/injection, schedule: Q04DX002 (ip), vehicle: saline with Tween-80) 93 % of control.

`CC(=O)CC(=O)Nc1ccccc1C`: the T/C is 100 % of control (dose: 50.0 mg/kg/injection, schedule: Q01DX001 (ip), vehicle: Klucel (hydroxypropylcellulose) (HPC)); 106 % of control (dose: 100.0 mg/kg/injection, schedule: Q01DX001 (ip), vehicle: Klucel (hydroxypropylcellulose) (HPC)); 106 % of control (dose: 200.0 mg/kg/injection, schedule: Q01DX001 (ip), vehicle: Klucel (hydroxypropylcellulose) (HPC)).

Take `Nc1nc(N)c2cc(CNc3ccc(C(=O)NC(CC(=O)O)C(=O)O)cc3)ccc2n1` (stereo unspecified): the T/C by setting is: (dose: 0.07 mg/kg/injection, schedule: Q01DX009 (ip), vehicle: saline) 97 % of control and 100 % of control; (dose: 0.14 mg/kg/injection, schedule: Q01DX009 (ip), vehicle: saline) 110 % of control and 120 % of control; (dose: 0.25 mg/kg/injection, schedule: Q01DX009 (sc), vehicle: saline) 110 % of control; (dose: 0.5 mg/kg/injection, schedule: Q01DX009 (sc), vehicle: saline) 120 % of control; (dose: 0.56 mg/kg/injection, schedule: Q01DX009 (ip), vehicle: saline) 164 % of control; (dose: 0.67 mg/kg/injection, schedule: Q01DX009 (ip), vehicle: saline) 157 % of control and 189 % of control. For the same compound, the T/C (dose: 1.0 mg/kg/injection, schedule: Q01DX009 (ip), vehicle: saline) is 178 % of control; the T/C (dose: 1.0 mg/kg/injection, schedule: Q01DX009 (sc), vehicle: saline) is 158 % of control; the T/C (dose: 1.13 mg/kg/injection, schedule: Q01DX009 (ip), vehicle: saline) is 153 % of control and 193 % of control and 195 % of control; the T/C (dose: 1.25 mg/kg/injection, schedule: Q01DX009 (ip), vehicle: saline) was 173 % of control and 177 % of control; the T/C (dose: 2.0 mg/kg/injection, schedule: Q01DX001 (ip), vehicle: saline) was 118 % of control; the T/C (dose: 2.0 mg/kg/injection, schedule: Q01DX001 (iv), vehicle: saline) is 117 % of control. For the same compound, the T/C by setting is: (dose: 2.0 mg/kg/injection, schedule: Q01DX001 (sc), vehicle: saline) 112 % of control; (dose: 2.0 mg/kg/injection, schedule: Q01DX009 (ip), vehicle: saline) 154 % of control; (dose: 2.0 mg/kg/injection, schedule: Q01DX009 (oral), vehicle: saline) 110 % of control; (dose: 2.0 mg/kg/injection, schedule: Q01DX009 (sc), vehicle: saline) 188 % of control; (dose: 2.0 mg/kg/injection, schedule: Q08DX002 (ip), vehicle: saline) 118 % of control; (dose: 2.0 mg/kg/injection, schedule: Q## X008 (ip), vehicle: saline) 123 % of control. Further, the T/C runs as follows: (dose: 2.0 mg/kg/injection, schedule: Q## X024 (ip), vehicle: saline) 154 % of control; (dose: 2.25 mg/kg/injection, schedule: Q01DX009 (ip), vehicle: saline) 174 % of control and 177 % of control; (dose: 4.0 mg/kg/injection, schedule: Q01DX001 (ip), vehicle: saline) 119 % of control; (dose: 4.0 mg/kg/injection, schedule: Q01DX001 (iv), vehicle: saline) 119 % of control; (dose: 4.0 mg/kg/injection, schedule: Q01DX001 (sc), vehicle: saline) 119 % of control; (dose: 4.0 mg/kg/injection, schedule: Q01DX009 (oral), vehicle: saline) 110 % of control. Further, the T/C is, setting by setting: (dose: 4.0 mg/kg/injection, schedule: Q01DX009 (sc), vehicle: saline) 120 % of control; (dose: 4.0 mg/kg/injection, schedule: Q## X003 (ip), vehicle: saline) 152 % of control; (dose: 4.0 mg/kg/injection, schedule: Q## X024 (ip), vehicle: saline) 185 % of control; (dose: 4.5 mg/kg/injection, schedule: Q01DX009 (ip), vehicle: saline) 95 % of control and 117 % of control; (dose: 5.0 mg/kg/injection, schedule: Q01DX009 (ip), vehicle: saline) 96 % of control and 101 % of control and 91 % of control; (dose: 8.0 mg/kg/injection, schedule: Q01DX001 (ip), vehicle: saline) 123 % of control. Moreover, the T/C (dose: 8.0 mg/kg/injection, schedule: Q01DX001 (iv), vehicle: saline) was 118 % of control; the T/C (dose: 8.0 mg/kg/injection, schedule: Q01DX009 (oral), vehicle: saline) is 109 % of control; the T/C (dose: 8.0 mg/kg/injection, schedule: Q03HX016 (ip), vehicle: saline) was 150 % of control; the T/C (dose: 8.0 mg/kg/injection, schedule: Q## X003 (ip), vehicle: saline) was 158 % of control; the T/C (dose: 8.0 mg/kg/injection, schedule: Q## X024 (ip), vehicle: saline) is 194 % of control; the T/C (dose: 9.0 mg/kg/injection, schedule: Q01DX009 (ip), vehicle: saline) was 87 % of control and 89 % of control. Besides, the T/C runs as follows: (dose: 10.0 mg/kg/injection, schedule: Q01DX009 (ip), vehicle: saline) 89 % of control and 91 % of control; (dose: 16.0 mg/kg/injection, schedule: Q01DX001 (iv), vehicle: saline) 122 % of control; (dose: 16.0 mg/kg/injection, schedule: Q01DX001 (oral), vehicle: saline) 102 % of control; (dose: 16.0 mg/kg/injection, schedule: Q01DX009 (oral), vehicle: saline) 112 % of control; (dose: 16.0 mg/kg/injection, schedule: Q03HX016 (ip), vehicle: saline) 165 % of control; (dose: 16.0 mg/kg/injection, schedule: Q08DX002 (ip), vehicle: saline) 169 % of control. Also, the T/C was 206 % of control (dose: 16.0 mg/kg/injection, schedule: Q## X024 (ip), vehicle: saline); 108 % of control (dose: 20.0 mg/kg/injection, schedule: Q01DX001 (ip), vehicle: saline); 152 % of control (dose: 32.0 mg/kg/injection, schedule: Q01DX001 (ip), vehicle: saline); 103 % of control (dose: 32.0 mg/kg/injection, schedule: Q01DX001 (oral), vehicle: saline); 197 % of control (dose: 32.0 mg/kg/injection, schedule: Q03HX016 (ip), vehicle: saline); 159 % of control (dose: 32.0 mg/kg/injection, schedule: Q08DX002 (ip), vehicle: saline). For the same compound, the T/C is 150 % of control (dose: 32.0 mg/kg/injection, schedule: Q## X008 (ip), vehicle: saline); 101 % of control (dose: 64.0 mg/kg/injection, schedule: Q01DX001 (oral), vehicle: saline); 101 % of control (dose: 128.0 mg/kg/injection, schedule: Q01DX001 (oral), vehicle: saline).
